Here are results for 33 compounds from patent US20260226076A1, “FUSED MULTICYCLIC COMPOUNDS AND THEIR USE AS PARP1 INHIBITORS” (LAEKNA THERAPEUTICS SHANGHAI CO., LTD., priority 2022, published 2026).

Read-outs that look alike come from different tables or passages of the source.

One assay deals with PARP1 (Homo sapiens, UniProt P09874). In words: PARP1-DNA enzymatic trapping assay. In kind it is biochemical. Conditions: 10 nM PARP1, 5 nM DNA probe, 2 mM NAD+, fluorescence polarization read at 30 minutes. How it is done: Enzymatic trapping assay is to measure the dissociation process of PARP1 from fluorescein-labeled DNA during the enzymatic activity. Assay was conducted at a total 10 μL of reaction volume, including 10 nM PARP1 and 5 nM DNA probe in the binding buffer (50 mM Tris-HCl pH 8.0, 50 mM NaCl, 1 mM MgCl2, 0.1 mM EDTA, and 0.01% IGEPAL), and was commenced by adding a final concentration of 2 mM NAD+ substrate.
PARP1 Poly-ADP ribosylation (PARylation) inhibitory assay was conducted with compounds dissolved in DMSO at a starting concentration of 5 μM. Dissolved compounds were added to 384-well microplate and premixed with PARPI enzyme and DNA probe for 20 minutes incubation. Enzymatic reactions were started by adding NAD+ to mixture, and each well was read at 30 minutes by microplate reader (VICTOR Nivo®, PerkinElmer) to detect the fluorescence polarization signal at 480 nm excitation/530 nm dual emission.
All measured IC50 values were calculated using four parameters dose-response inhibition model in GraphPad Prism 8.0.2 (La Jolla, California, USA, www.graphpad.com).

The test system of another assay is MDA-MB-436 cells. In words: Cell proliferation assay (MDA-MB-436). It is filed as cell-based. Conditions: at least 7 days, Cell-Titer Glo, read-out: MDA-MB-436 anti-proliferation assay. How it is done:
(§1) For PARPi sensitivity, exponentially growing MDA-MB-436 and DLD1 BRCA2^−/− cells were seed in 96 or 384-well plates at very low density with the goal of not splitting for at least 7 days (typically 0.3k-1.2k cells/well). Cells were plated on […] and treated with DMSO or increasing concentrations of PARP1 inhibitors on Day 0. At the end of the experiment, cell viability was estimated using Cell-Titer Glo (Promega).

The test system of another assay is DLD1 BRCA2−/− cells. In words: Cell proliferation assay (DLD1 BRCA2−/−). In kind it is cell-based. Conditions: at least 7 days, Cell-Titer Glo, read-out: DLD1 BRCA2−/− anti-proliferation assay. How it is done:
as §1

Setting [1] is: Homo sapiens, MDA-MB-436, 168 h.

Sequence of PARP1 (P09874 whole entry): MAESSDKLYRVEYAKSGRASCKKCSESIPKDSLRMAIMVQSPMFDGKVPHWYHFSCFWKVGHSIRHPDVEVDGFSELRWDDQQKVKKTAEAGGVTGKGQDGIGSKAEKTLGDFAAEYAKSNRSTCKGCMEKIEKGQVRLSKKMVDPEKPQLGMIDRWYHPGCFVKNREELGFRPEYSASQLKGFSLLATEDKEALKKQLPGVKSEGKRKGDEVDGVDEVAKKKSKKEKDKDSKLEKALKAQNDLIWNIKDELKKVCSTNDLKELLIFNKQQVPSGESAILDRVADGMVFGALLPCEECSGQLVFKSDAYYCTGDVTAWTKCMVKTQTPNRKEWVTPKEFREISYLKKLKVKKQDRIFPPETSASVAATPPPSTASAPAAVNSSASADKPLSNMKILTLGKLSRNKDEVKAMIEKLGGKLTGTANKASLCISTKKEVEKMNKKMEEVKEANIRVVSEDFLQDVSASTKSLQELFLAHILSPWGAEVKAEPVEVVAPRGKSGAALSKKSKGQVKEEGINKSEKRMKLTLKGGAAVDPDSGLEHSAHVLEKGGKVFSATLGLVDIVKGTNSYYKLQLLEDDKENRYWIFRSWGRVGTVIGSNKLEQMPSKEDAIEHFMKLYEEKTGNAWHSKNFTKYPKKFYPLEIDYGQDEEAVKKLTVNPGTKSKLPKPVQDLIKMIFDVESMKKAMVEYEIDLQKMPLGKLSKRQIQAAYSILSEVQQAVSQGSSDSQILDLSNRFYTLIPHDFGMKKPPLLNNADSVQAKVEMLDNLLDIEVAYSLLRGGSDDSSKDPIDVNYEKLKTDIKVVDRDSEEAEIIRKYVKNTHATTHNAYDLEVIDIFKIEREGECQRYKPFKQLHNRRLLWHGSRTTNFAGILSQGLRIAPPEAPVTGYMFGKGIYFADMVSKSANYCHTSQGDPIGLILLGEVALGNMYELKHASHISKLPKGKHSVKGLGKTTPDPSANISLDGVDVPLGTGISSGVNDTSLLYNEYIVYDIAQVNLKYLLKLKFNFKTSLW

As to `O=C(N[C@@H]1CCOC1)c1ccc(N2C[C@H]3CN(Cc4cc5[nH]c(=O)c6c(c5cn4)CCC6)C[C@@H]3C2)c(F)n1` [Compound 56], the IC50 came out at 5.17 nM on PARP1; 0.71 nM in the assay with MDA-MB-436 cells (setting [1]); 3.37 nM in the assay with DLD1 BRCA2−/− cells (Homo sapiens, DLD-1, 168 h).
In the same order, the values of `O=C(N[C@H]1CCOC1)c1ccc(N2C[C@H]3CN(Cc4cc5[nH]c(=O)c6c(c5cn4)CCC6)C[C@@H]3C2)c(F)n1` [Compound 57] are 18.9 nM, 1.24 nM and 8.41 nM.
The corresponding values for `CNC(=O)c1ccc(N2C[C@@H]3CN(Cc4cnc5c(c4)NC(=O)[C@@H]4CCCN54)C[C@H]3C2)cn1` (racemic) [Compound 7] are 24.8 nM, 2.59 nM and 4.63 nM.
In the same order, the values of `CNC(=O)c1ccc(N2C[C@@H]3CN(Cc4ccc5c(c4F)NC(=O)C(C)O5)C[C@H]3C2)cn1` (mixture of isomers) [Compound 17] are > 500 nM, > 500 nM and 468 nM.
As to `O=C(NC1COC1)c1ccc(N2C[C@H]3CN(Cc4ccc5c6c(c(=O)[nH]c5c4)COC6)C[C@@H]3C2)c(F)n1` [Compound 61], the IC50 was determined as 9.14 nM against PARP1; 1.35 nM in the assay on MDA-MB-436 cells (setting [1]); 7.97 nM in the assay on DLD1 BRCA2−/− cells (Homo sapiens, DLD-1, 168 h).
In the same order, the values of `CNC(=O)c1ccc(N2C[C@H]3CN(Cc4cnc5c(c4)NC(=O)[C@@H]4CCCN54)C[C@@H]3C2)c(F)n1` [Compound 22] are 10.9 nM, 0.69 nM and 1.09 nM.
The corresponding values for `COCCNC(=O)c1ccc(N2C[C@H]3CN(Cc4ccc5c6c(c(=O)[nH]c5c4)COCC6)C[C@@H]3C2)c(F)n1` [Compound 67] are 10.4 nM, 0.64 nM and 2.16 nM.
For the compound `CCc1cc2ncc(CN3C[C@H]4CN(c5ccc(C(=O)NC)nc5)C[C@@H]4C3)cc2[nH]c1=O` [Compound 9], the IC50 at PARP1 turned out to be 10.8 nM; in the assay with MDA-MB-436 cells, 1.76 nM; in the assay on DLD1 BRCA2−/− cells (Homo sapiens, DLD-1, 168 h), 1.29 nM.
Regarding `CNC(=O)c1ccc(N2C[C@@H]3CN(Cc4cnc5c(c4)[nH]c(=O)n4cccc54)C[C@H]3C2)cn1` (racemic) [Compound 12], the IC50 at PARP1 amounted to 17.3 nM; in the assay on MDA-MB-436 cells (setting [1]), 5.03 nM; in the assay on DLD1 BRCA2−/− cells (Homo sapiens, DLD-1, 168 h), 3.68 nM.
With `CO[C@H]1C[C@H](NC(=O)c2ccc(N3C[C@H]4CN(Cc5cnc6c7c(c(=O)[nH]c6c5)COCC7)C[C@@H]4C3)c(F)n2)C1` [Compound 74], the IC50 against PARP1 turned out to be 8.26 nM; in the assay on MDA-MB-436 cells (setting [1]) it was 0.57 nM; in the assay on DLD1 BRCA2−/− cells (Homo sapiens, DLD-1, 168 h), 4.98 nM.
In the same order, the values of `COCCNC(=O)c1ccc(N2C[C@H]3CN(Cc4ccc5c6c(c(=O)[nH]c5c4)COCC6)C[C@@H]3C2)cn1` [Compound 68] are 14.6 nM, 0.6 nM and 12.3 nM.
In the same order, the values of `O=C(NC1COC1)c1ccc(N2C[C@H]3CN(Cc4cc5[nH]c(=O)c6c(c5cn4)CCC6)C[C@@H]3C2)c(F)n1` [Compound 59] are 5.17 nM, 0.37 nM and 1.35 nM.
The corresponding values for `CCC1Oc2ncc(CN3C[C@H]4CN(c5ccc(C(=O)NC6CC6)nc5)C[C@@H]4C3)cc2NC1=O` (mixture of isomers) [Compound 16] are > 500 nM, > 500 nM and > 500 nM.
For `COCCNC(=O)c1ccc(N2C[C@H]3CN(Cc4cc5[nH]c(=O)c6c(c5cn4)CCC6)C[C@@H]3C2)c(F)n1` [Compound 55], the IC50 against PARP1 was 6.96 nM; in the assay with MDA-MB-436 cells (setting [1]), 1.24 nM; with DLD1 BRCA2−/− cells (Homo sapiens, DLD-1, 168 h), 4.66 nM.
Regarding `CNC(=O)c1ccc(N2C[C@@H]3CN(Cc4cnc5c(c4)NC(=O)[C@@H]4CCCN54)C[C@H]3C2)c(F)n1` [Compound 23], the IC50 against PARP1 came out at 31.1 nM; in the assay with MDA-MB-436 cells (setting [1]), 20.2 nM; with DLD1 BRCA2−/− cells (Homo sapiens, DLD-1, 168 h), 34.9 nM.
Turning to `CNC(=O)c1ccc(N2C[C@H]3CN(Cc4cnc5c6c(c(=O)[nH]c5c4)CCC6)C[C@@H]3C2)cn1` [Compound 47], the IC50 against PARP1 was 9.42 nM; in the assay with MDA-MB-436 cells (setting [1]) it was 1.1 nM; with DLD1 BRCA2−/− cells (Homo sapiens, DLD-1, 168 h) it was 0.77 nM.
As for `CO[C@H]1C[C@@H](NC(=O)c2ccc(N3C[C@H]4CN(Cc5cnc6c7c(c(=O)[nH]c6c5)COCC7)C[C@@H]4C3)cn2)C1` [Compound 75], the IC50 against PARP1 amounted to 8.6 nM; in the assay with MDA-MB-436 cells (setting [1]), 0.93 nM; with DLD1 BRCA2−/− cells (Homo sapiens, DLD-1, 168 h), 10.2 nM.
In the same order, the values of `CCc1cc2ncc(CN3C[C@@H]4CN(c5ccc(C(=O)NCCOC)nc5F)C[C@H]4C3)cc2[nH]c1=O` [Compound 34] are 10.5 nM, 0.78 nM and 1.09 nM.
`CNC(=O)c1ccc(N2C[C@H]3CN(Cc4ccc5nc(C)c(=O)[nH]c5c4F)C[C@@H]3C2)c(F)n1` [Compound 10]: the IC50 on PARP1 was 20.6 nM; with MDA-MB-436 cells (setting [1]) it was 7.84 nM; in the assay on DLD1 BRCA2−/− cells (Homo sapiens, DLD-1, 168 h) it was 4.92 nM.
In the same order, the values of `CNC(=O)c1ccc(N2C[C@H]3CN(Cc4cnc5c6c(c(=O)[nH]c5c4)OCCC6)C[C@@H]3C2)c(F)n1` [Compound 81] are 7.6 nM, 1.05 nM and 4.66 nM.
In the same order, the values of `CCc1cc2ncc(CN3C[C@@H]4CN(c5ccc(C(=O)NC)nc5)C[C@@H]4C3)cc2[nH]c1=O` [Compound 1] are 42.9 nM, 410 nM and > 500 nM.
With `CCc1nc2ncc(CN3C[C@@H]4CN(c5ccc(C(=O)NC)nc5F)C[C@H]4C3)cc2[nH]c1=O` [Compound 37], the IC50 against PARP1 is 13.5 nM; with MDA-MB-436 cells (setting [1]), 4.63 nM; in the assay with DLD1 BRCA2−/− cells (Homo sapiens, DLD-1, 168 h), 5.98 nM.
Consider `CCC1Oc2ncc(CN3C[C@H]4CN(c5ccc(C(=O)NC6CC6)nc5F)C[C@@H]4C3)cc2NC1=O` (mixture of isomers) [Compound 18], for which the IC50 against PARP1 stood at 27.3 nM; with MDA-MB-436 cells (setting [1]), 11.4 nM; with DLD1 BRCA2−/− cells (Homo sapiens, DLD-1, 168 h), 12.7 nM.
In the same order, the values of `CCc1cc2ncc(CN3C[C@H]4CN(c5ccc(C(=O)NCCOC)nc5)C[C@@H]4C3)cc2[nH]c1=O` (racemic) [Compound 26] are 5.99 nM, 0.69 nM and 1.6 nM.
In the same order, the values of `CNC(=O)c1ccc(N2C[C@H]3CN(Cc4ccc5c6c(c(=O)[nH]c5c4)CCOC6)C[C@@H]3C2)cn1` [Compound 78] are 26.7 nM, 1.41 nM and 9.14 nM.
The corresponding values for `O=C(N[C@H]1CCOC1)c1ccc(N2C[C@H]3CN(Cc4cnc5c6c(c(=O)[nH]c5c4)CCC6)C[C@@H]3C2)c(F)n1` [Compound 51] are 7.36 nM, 0.7 nM and 2.96 nM.
For the compound `CNC(=O)c1ccc(N2C[C@@H]3CN(Cc4cnc5cc(C)c(=O)[nH]c5c4)C[C@H]3C2)c(F)n1` (racemic) [Compound 21], the IC50 against PARP1 worked out at 17.8 nM; in the assay on MDA-MB-436 cells (setting [1]), 1.91 nM; in the assay with DLD1 BRCA2−/− cells (Homo sapiens, DLD-1, 168 h), 1.76 nM.
In the same order, the values of `CNC(=O)c1ccc(N2C[C@@H]3CN(Cc4cnc5cc(C)c(=O)[nH]c5c4)C[C@H]3C2)c(C)n1` [Compound 24] are > 500 nM, 407 nM and 371 nM.
In the case of `CO[C@H]1C[C@@H](NC(=O)c2ccc(N3C[C@H]4CN(Cc5ccc6c7c(c(=O)[nH]c6c5)OCCC7)C[C@@H]4C3)c(F)n2)C1` [Compound 90], the IC50 on PARP1 amounted to 5.16 nM; with MDA-MB-436 cells (setting [1]) it was 1.74 nM; in the assay on DLD1 BRCA2−/− cells (Homo sapiens, DLD-1, 168 h), 8.3 nM.
At PARP1, `O=C(NC1COC1)c1ccc(N2C[C@H]3CN(Cc4ccc5c6c(c(=O)[nH]c5c4)COCC6)C[C@@H]3C2)c(Cl)n1` [Compound 84] registered an IC50 of 411 nM.
Turning to `O=C(N[C@@H]1CCOC1)c1ccc(N2C[C@H]3CN(Cc4cnc5c6c(c(=O)[nH]c5c4)CCC6)C[C@@H]3C2)c(F)n1` [Compound 50], the IC50 against PARP1 is 7.86 nM; with MDA-MB-436 cells (setting [1]), 1.05 nM; in the assay on DLD1 BRCA2−/− cells (Homo sapiens, DLD-1, 168 h), 4.04 nM.
Regarding `CCc1cc2ncc(CN3C[C@H]4CN(c5ccc(C(=O)NC)nc5F)C[C@@H]4C3)cc2[nH]c1=O` (racemic) [Compound 19], the figures for the IC50 against PARP1, in the assay with MDA-MB-436 cells and in the assay on DLD1 BRCA2−/− cells were 6.13 nM, 0.59 nM and 0.59 nM, respectively.
In the case of `CNC(=O)c1ccc(N2C[C@H]3CN(Cc4cc5[nH]c(=O)c6c(c5cn4)COC6)C[C@@H]3C2)c(F)n1` [Compound 63], the IC50 was 101 nM on PARP1; 7.29 nM in the assay on MDA-MB-436 cells (setting [1]); 141 nM in the assay on DLD1 BRCA2−/− cells (Homo sapiens, DLD-1, 168 h).
